Measured values taken from patent publication US20050020654A1, “Novel PPAR agonists, pharmaceutical compositions and uses thereof” (priority 2003, published 2005).
Like-named read-outs stand apart in the source and are kept apart here. Each block holds one compound with its values, some of them ahead of it.

Assays:
[1] = format: in vivo
Method: An obese person (BMI: 34.4 kg/m2, waist circumference: 51 inches) with untreated hypertension, pre-diabetes and the metabolic syndrome was given telmisartan (Micardis®), 80 mg/day, for treatment of high blood pressure. […] The patient has the metabolic syndrome as defined by the National Cholesterol Education Program (NCEP). The metabolic syndrome is associated with a 5-9 fold increase in the risk for developing type 2 diabetes and a 2-3 fold increase risk in cardiovascular mortality. […] After 5 weeks on valsartan (week 15), their glucose, insulin, triglyceride levels, and HOMA-IR score increased, consistent with a reversal in the improved insulin resistance obtained with telmisartan (Table 1). Valsartan was discontinued and they were switched back to telmisartan.

PPARγ [2] = molecular target: T1, PPARγ (Homo sapiens, UniProt P37231); conditions: Benson et al. Hypertension (2004) in press; cited from earlier work
T1 construct: expressed in transfected cells; host or cells: CV-1 cells (ATCC CCL-70)
T1 sequence (P37231 1-505): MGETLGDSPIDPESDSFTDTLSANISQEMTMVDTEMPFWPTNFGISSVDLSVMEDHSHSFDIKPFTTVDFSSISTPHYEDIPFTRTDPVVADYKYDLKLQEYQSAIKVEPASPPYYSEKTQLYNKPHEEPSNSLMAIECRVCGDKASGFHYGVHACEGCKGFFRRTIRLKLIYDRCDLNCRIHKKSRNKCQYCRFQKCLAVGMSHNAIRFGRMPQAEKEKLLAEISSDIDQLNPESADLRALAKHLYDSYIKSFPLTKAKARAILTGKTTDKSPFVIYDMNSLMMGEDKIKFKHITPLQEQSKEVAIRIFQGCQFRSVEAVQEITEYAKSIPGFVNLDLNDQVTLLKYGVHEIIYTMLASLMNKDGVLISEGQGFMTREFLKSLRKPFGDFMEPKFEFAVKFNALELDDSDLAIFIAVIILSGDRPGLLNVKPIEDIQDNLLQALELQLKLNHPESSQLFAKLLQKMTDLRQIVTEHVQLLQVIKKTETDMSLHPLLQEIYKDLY

[3] = format: in vivo, human
Method: A person with hypertension, hypertriglyceridemia, and type 2 diabetes was selected for therapy. […] The patient is taking another medication for type 2 diabetes but the dose of this medication is held constant throughout the trial. The patient is given telmisartan at an oral dose of 80 mg/day. […] The oral dose of telmisartan (Micardis®) is then increased to 160 mg/day. […] The telmisartan (Micardis®) therapy is continued according to the judgment of the clinician in order to maintain the improved control of the patient's blood pressure and their type 2 diabetes.

PPARγ [4] = molecular target: T1, PPARγ; experiment: PPARγ transactivation assay (luciferase reporter) in transfected CV-1 cells; format: cell-based
Method: PPARγ activity was determined by transactivation assays in CV-1 cells (CCL-70 line from American Type Culture Collection (ATCC), Bethesda, Md.) transfected using the GenePorter transfection reagent (Gene Therapy Systems, San Diego, Calif.) to deliver 200 ng of a PPARγ expression plasmid and 1 μg of a luciferase reporter plasmid and 400 ng pCMVSport b-gal (Gibco, Grand Island, N.J.) as an internal control. 24 hr post-transfection, cells were treated with varying concentrations of the test compounds of this invention, and incubated for an additional 24 hr. Rosiglitazone and pioglitazone, a known PPARγ full agonist, and telmisartan, a known ARB and PPARγ partial agonist (Benson et al. Hypertension (2004) in press) are used as controls. Cell extracts were assayed for luciferase and β-galactosidase activity using Promega (Madison, Wis.) assay systems. All treatments were performed in triplicate, and normalized for β-galactosidase activity. Agonist concentrations yielding half maximal activation (EC50 values) were calculated using GraphPad Prism version 3.03 (GraphPad Software, Inc., San Diego, Calif.).

[5] = oral 80 mg/day, after three weeks
[6] = oral 160 mg/day, after seven weeks

Compound: CCCCC(=O)N(Cc1ccc(-c2ccccc2-c2nnn[nH]2)cc1)[C@H](C(=O)O)C(C)C [valsartan]
- glucose, insulin, triglyceride levels, and HOMA-IR score ([1]; 160 mg/day, after 5 weeks (week 15), after switch from telmisartan): increased
- activation of PPARγ (PPARγ [2]): does not activate PPARγ

Compound: CCCc1nc2c(C)cc(-c3nc4ccccc4n3C)cc2n1Cc1ccc(-c2ccccc2C(=O)O)cc1 [telmisartan]
- blood pressure ([1]; 80 mg/day, throughout the observation period): normalized and remained normal
- blood glucose, insulin and triglyceride concentrations ([1]; 80 mg/day, up to week 10): progressively decreased
- insulin resistance, HOMA-IR score ([1]; 80 mg/day, up to week 10): improvement in insulin resistance
- fluid retention, peripheral edema, pulmonary edema, or congestive heart failure on clinical examination ([1]; human, in vivo): no evidence of any increase
- insulin resistance and triglycerides ([1]; switched back from valsartan, following 4 weeks (week 19)): again improved
- HDL cholesterol [3, 5]: 50 mg/dL
- blood pressure [3, 5]: 143/91
- fasting glucose [3, 5]: 188 mg/dL
- triglyceride [3, 5]: 281 mg/dL
- HDL cholesterol [3, 6]: 60 mg/dL
- blood pressure [3, 6]: 131/81
- glucose level [3, 6]: 145 mg/dL
- triglyceride level [3, 6]: 178 mg/dL
- activation of PPARγ (PPARγ [2]): has been shown to activate PPARγ
- activation of the receptor relative to maximum level of activity achieved by the full agonists pioglitazone and rosiglitazone (PPARγ [4]): 25%-30%
- PPARγ activation (PPARγ [4]; tested at concentrations 1-5 mM): 5-8 fold

Compound: CCCCC1=NC2(CCCC2)C(=O)N1Cc1ccc(-c2ccccc2-c2nnn[nH]2)cc1 [Irbesartan, reference compound]
- PPARγ activation (PPARγ [4]): 2-3 fold

Compound: COC(=O)c1cc(CC2SC(=O)NC2=O)ccc1OCCn1c(CCCCC2CCCCC2)nc2ccccc21 (stereo not drawn) [Methyl 2-(2-(2-(4-cyclohexylbutyl)-1H-benzo[d]imidazol-1-yl)ethoxy)-5-((2,4-dioxothiazolidin-5-yl)methyl)benzoate]
- PPAR-γ Fold activation (PPARγ [4]; @ 0.1 uM): 2 x
- PPAR-γ Fold activation (PPARγ [4]; @ 1 μM): 24 x
- PPAR-γ Fold activation (PPARγ [4]; @ 10 μM): 34 x
- PPAR-γ Fold activation (PPARγ [4]; @ .01 uM): 1 x

Compound: CCCc1nc2c(C)cc(Br)cc2n1CCOc1ccc(CC2SC(=O)NC2=O)cc1C(=O)O (stereo not drawn) [2-(2-(6-Bromo-4-methyl-2-propyl-1H-benzo[d]imidazol-1-yl)ethoxy)-5-((2,4-dioxothiazolidin-5-yl)methyl)benzoic acid]
- PPAR-γ Fold activation (PPARγ [4]; @ 0.1 uM): 3.8 x
- PPAR-γ Fold activation (PPARγ [4]; @ 1 μM): 10 x
- PPAR-γ Fold activation (PPARγ [4]; @ 10 μM): 15.5 x
- PPAR-γ Fold activation (PPARγ [4]; @ .01 uM): 1.7 x

Further lines, results first:

- PPAR-γ Fold activation (PPARγ [4]; @ 0.1 uM): 1.2 x
- PPAR-γ Fold activation (PPARγ [4]; @ 1 μM): 6.1 x
- PPAR-γ Fold activation (PPARγ [4]; @ 10 μM): 7.4 x
Compound: Methyl 5-((2,4-dioxothiazolidin-5-yl)methyl)-2-(2-(4-methyl-6-phenyl-2-propyl-1H-benzo[d]imidazol-1-yl)ethoxy)benzoate

- PPAR-γ Fold activation (PPARγ [4]; @ 0.1 uM): 3.1 x
- PPAR-γ Fold activation (PPARγ [4]; @ 1 μM): 32 x
- PPAR-γ Fold activation (PPARγ [4]; @ 10 μM): 41 x
- PPAR-γ Fold activation (PPARγ [4]; @ .01 uM): 1 x
Compound: CCCc1nc2c(C)cc(Br)cc2n1CCOc1ccc(CC2SC(=O)NC2=O)cc1C(=O)OC (stereo not drawn) [Methyl 2-(2-(6-bromo-4-methyl-2-propyl-1H-benzo[d]imidazol-1-yl)ethoxy)-5-((2,4-dioxothiazolidin-5-yl)methyl)benzoate]

- PPAR-γ Fold activation (PPARγ [4]; concentration not given): No activity
Compound: CCCc1nc2c(C)cc(-c3nc4ccccc4n3C)cc2n1Cc1ccc(-c2ccc(C(=O)O)cc2C(=O)O)cc1 [averysartan]

- PPAR-γ Fold activation (PPARγ [4]; @ 0.1 uM): 1 x
- PPAR-γ Fold activation (PPARγ [4]; @ 1 μM): 5 x
- PPAR-γ Fold activation (PPARγ [4]; @ 5 uM): 9 x
- PPAR-γ Fold activation (PPARγ [4]; @ 10 μM): 11 x
Compound: CCCc1nc2c(C)cc(-c3nc4ccccc4n3C)cc2n1Cc1ccc(-c2ccc(C(=O)OC)cc2C(=O)OC)cc1 [proaverysartan]
